Results on 16 molecules are retold here after patent publication US8283353B2, “Fused ring compound and use thereof” (Takeda Pharmaceutical Company Limited, priority 2009, dated 2012).

The target of assay [1] is T1, human AT1 receptor (Homo sapiens, UniProt P30556).
T1 construct: expressed in transfected cells; membrane fraction
T1 sequence (P30556 1-359): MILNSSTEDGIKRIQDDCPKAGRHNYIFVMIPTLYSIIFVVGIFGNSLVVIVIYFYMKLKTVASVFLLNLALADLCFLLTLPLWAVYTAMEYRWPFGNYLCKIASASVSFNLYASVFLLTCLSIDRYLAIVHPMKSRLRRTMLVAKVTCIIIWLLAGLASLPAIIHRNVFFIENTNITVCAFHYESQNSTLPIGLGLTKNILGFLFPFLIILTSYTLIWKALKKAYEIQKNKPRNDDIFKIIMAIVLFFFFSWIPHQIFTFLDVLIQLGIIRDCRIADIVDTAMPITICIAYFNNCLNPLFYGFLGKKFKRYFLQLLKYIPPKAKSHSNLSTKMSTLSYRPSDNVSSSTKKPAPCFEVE
The experiment in a line: AT1 receptor antagonistic activity: [125I]-angiotensin II binding assay on human AT1 receptor-expressing CHO-K1 cellular membrane fraction. The note with it: 22.5 pM [125I]-angiotensin II, 1 hr room temperature. In short, it runs like this: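 Competition binding used radiolabelled angiotensin II on stably transfected CHO-K1 membrane fractions in Tris pH 7.4/MgCl2 buffer, optionally containing 0.3 mg/mL fatty acid-free BSA, 1 hr at room temperature. Filtration onto GF/C separated bound tracer, and nonspecific binding was measured with candesartan.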

Assay [2] deals with T2, human PPARγ (Homo sapiens, UniProt P37231).
T2 construct: expressed in transfected cells
T2 sequence (P37231 1-477 isoform P37231-2): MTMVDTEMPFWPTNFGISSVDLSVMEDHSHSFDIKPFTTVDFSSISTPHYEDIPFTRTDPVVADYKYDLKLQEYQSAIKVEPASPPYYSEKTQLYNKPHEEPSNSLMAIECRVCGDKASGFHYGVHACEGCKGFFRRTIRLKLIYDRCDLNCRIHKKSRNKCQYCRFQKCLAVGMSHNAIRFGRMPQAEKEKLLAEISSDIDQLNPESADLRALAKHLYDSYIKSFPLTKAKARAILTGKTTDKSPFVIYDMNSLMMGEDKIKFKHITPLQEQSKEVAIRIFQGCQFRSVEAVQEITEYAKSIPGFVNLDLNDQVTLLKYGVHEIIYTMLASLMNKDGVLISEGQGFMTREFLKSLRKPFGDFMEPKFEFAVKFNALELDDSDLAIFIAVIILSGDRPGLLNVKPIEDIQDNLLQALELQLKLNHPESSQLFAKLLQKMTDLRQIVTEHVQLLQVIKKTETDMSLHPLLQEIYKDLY
T2 sequence (P19793 1-462 partner): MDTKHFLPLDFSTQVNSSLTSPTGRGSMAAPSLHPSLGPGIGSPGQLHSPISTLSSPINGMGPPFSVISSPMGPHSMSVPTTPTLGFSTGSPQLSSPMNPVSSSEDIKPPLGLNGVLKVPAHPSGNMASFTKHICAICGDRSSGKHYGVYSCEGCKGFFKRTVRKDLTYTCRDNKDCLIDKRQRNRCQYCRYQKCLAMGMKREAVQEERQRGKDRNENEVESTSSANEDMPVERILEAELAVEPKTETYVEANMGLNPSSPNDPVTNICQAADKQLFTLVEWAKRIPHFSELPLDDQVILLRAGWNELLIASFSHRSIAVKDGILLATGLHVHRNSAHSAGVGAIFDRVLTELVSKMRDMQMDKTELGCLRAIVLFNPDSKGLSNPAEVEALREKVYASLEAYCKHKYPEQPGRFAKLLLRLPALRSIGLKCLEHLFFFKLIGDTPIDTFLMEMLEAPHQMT
Nature of the assay: PPARγ agonistic activity: luciferase reporter assay in PPARγ:RXRα:4ERPP/CHO-K1 cells. In kind it is cell-based. As to conditions: CHO-K1, test compound 10^−6 M; luciferase activity of control compound X (1 μM) = 100%, non-administration group = 0%. The method, boiled down:
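CHO-K1 cells stably carrying hPPARγ/RXRα and a 4ERPP luciferase reporter, dosed with test compound for 1 day at 37 °C in Ham's F12 with 0.1% fatty acid-free BSA. Luciferase read by luminescence; activity given as % of 1 μM control compound X (100%) versus untreated (0%).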
A general note: In a reporter assay the amount or activity of a reporter protein is the signal.

The IC50 is the point on the concentration scale where inhibition reaches its midpoint. Regarding `CCCc1c(Cc2ccc(-c3ccccc3-c3noc(=O)[nH]3)cc2)c(=O)n(C2CCC2)c2nc(C)nn12` [Example 83, 4-cyclobutyl-2-methyl-6-{[2′-(5-oxo-4,5-dihydro-1,2,4-oxadiazol-3-yl)biphenyl-4-yl]methyl}-7-propyl[1,2,4]triazolo[1,5-a]pyrimidin-5(4H)-one], in assay [1], the IC50 worked out at 1.5 nM. Besides, the activation at 1 µM in assay [2] was determined as 16%.

Consider `CCCc1c(Cc2ccc(-c3ccccc3-c3noc(=O)[nH]3)cc2)c(=O)n(C/C(=N\OCC)C(F)(F)F)c2nc(C)nn12` [Example 107, 4-[(2E)-2-(ethoxyimino)-3,3,3-trifluoropropyl]-2-methyl-6-{[2′-(5-oxo-4,5-dihydro-1,2,4-oxadiazol-3-yl)biphenyl-4-yl]methyl}-7-propyl[1,2,4]triazolo[1,5-a]pyrimidin-5(4H)-one], for which the IC50 in assay [1] was found to be 1.9 nM. Moreover, the activation at 1 µM in assay [2] is 16%.

The molecule `CCCc1c(Cc2ccc(-c3ccccc3-c3noc(=O)[nH]3)cc2F)c(=O)n(C2CCOCC2)c2nc(C)nn12` [Example 108, 6-{[3-fluoro-2′-(5-oxo-4,5-dihydro-1,2,4-oxadiazol-3-yl)biphenyl-4-yl]methyl}-2-methyl-7-propyl-4-(tetrahydro-2H-pyran-4-yl)[1,2,4]triazolo[1,5-a]pyrimidin-5(4H)-one] gave an IC50 in assay [1] of 1.5 nM. In addition, in assay [2], the activation at 1 µM amounted to 16%.

As for `CCCc1c(Cc2ccc(-c3ccccc3-c3noc(=O)[nH]3)cc2)c(=O)n(C2CCOCC2)c2ncnn12` [Example 109, 6-{[2′-(5-oxo-4,5-dihydro-1,2,4-oxadiazol-3-yl)biphenyl-4-yl]methyl}-7-propyl-4-(tetrahydro-2H-pyran-4-yl)[1,2,4]triazolo[1,5-a]pyrimidin-5(4H)-one], the IC50 in assay [1] came out at 2.2 nM. This molecule also returned an activation at 1 µM in assay [2] of 16%.

In the case of `CCCc1c(Cc2ccc(-c3ccccc3-c3noc(=O)[nH]3)cc2F)c(=O)n(C2CCSCC2)c2nc(C)nn12` [Example 113, 6-{[3-fluoro-2′-(5-oxo-4,5-dihydro-1,2,4-oxadiazol-3-yl)biphenyl-4-yl]methyl}-2-methyl-7-propyl-4-(tetrahydro-2H-thiopyran-4-yl)[1,2,4]triazolo[1,5-a]pyrimidin-5(4H)-one], the IC50 in assay [1] is 1.5 nM. The activation at 1 µM in assay [2] stood at 20%.

Take `CCCc1c(Cc2ccc(-c3ccccc3-c3noc(=O)[nH]3)cc2)c(=O)n(C(C)/C(C)=N/OCC)c2nc(C)nn12` (centres unmarked) [Example 114, 4-[(2E)-2-(ethoxyimino)-1-methylpropyl]-2-methyl-6-{[2′-(5-oxo-4,5-dihydro-1,2,4-oxadiazol-3-yl)biphenyl-4-yl]methyl}-7-propyl[1,2,4]triazolo[1,5-a]pyrimidin-5(4H)-one]: the IC50 in assay [1] was found to be 2 nM. The same molecule returned an activation at 1 µM in assay [2] of 16%.

Regarding `CCCc1c(Cc2ccc(-c3ccccc3-c3noc(=O)[nH]3)cc2F)c(=O)n(C2CCOCC2)c2ncnn12` [Example 117, 6-{[3-fluoro-2′-(5-oxo-4,5-dihydro-1,2,4-oxadiazol-3-yl)biphenyl-4-yl]methyl}-7-propyl-4-(tetrahydro-2H-pyran-4-yl)[1,2,4]triazolo[1,5-a]pyrimidin-5(4H)-one], the IC50 in assay [1] was 1.3 nM. In assay [2], this molecule showed an activation at 1 µM of 18%.

The molecule `CCCc1c(Cc2ccc(-c3ccccc3-c3noc(=O)[nH]3)cc2F)c(=O)n(C2CCCOC2)c2ncnn12` (centres unmarked) [Example 121, 6-{[3-fluoro-2′-(5-oxo-4,5-dihydro-1,2,4-oxadiazol-3-yl)biphenyl-4-yl]methyl}-7-propyl-4-(tetrahydro-2H-pyran-3-yl)[1,2,4]triazolo[1,5-a]pyrimidin-5(4H)-one] registered an IC50 in assay [1] of 1.9 nM. Further, the activation at 1 µM in assay [2] was found to be 31%.

Turning to `CCCc1c(Cc2ccc(-c3ccccc3-c3noc(=O)[nH]3)cc2)c(=O)n(C2CCCOC2)c2ncnn12` (centres unmarked) [Example 124, 6-{[2′-(5-oxo-4,5-dihydro-1,2,4-oxadiazol-3-yl)biphenyl-4-yl]methyl}-7-propyl-4-(tetrahydro-2H-pyran-3-yl)[1,2,4]triazolo[1,5-a]pyrimidin-5(4H)-one], the IC50 in assay [1] was 2.4 nM. Further, the activation at 1 µM in assay [2] was 21%.

In turn, `CCCCc1c(Cc2ccc(-c3ccccc3-c3noc(=O)[nH]3)cc2)c(=O)n(C2CCOCC2)c2ncnn12` [Example 125, 7-butyl-6-{[2′-(5-oxo-4,5-dihydro-1,2,4-oxadiazol-3-yl)biphenyl-4-yl]methyl}-4-(tetrahydro-2H-pyran-4-yl)[1,2,4]triazolo[1,5-a]pyrimidin-5(4H)-one] yielded an IC50 in assay [1] of 1.9 nM. Further, in assay [2], the activation at 1 µM worked out at 23%.

`CCCc1c(C(C)c2ccc(-c3ccccc3-c3noc(=O)[nH]3)cc2)c(=O)n([C@H]2CC[C@H](OCC(C)(C)O)CC2)c2ncnn12` (stereo partly drawn) [Example 131, 4-[trans-4-(2-hydroxy-2-methylpropoxy)cyclohexyl]-6-{1-[2′-(5-oxo-4,5-dihydro-1,2,4-oxadiazol-3-yl)biphenyl-4-yl]ethyl}-7-propyl[1,2,4]triazolo[1,5-a]pyrimidin-5(4H)-one] yielded an IC50 in assay [1] of 2.9 nM. The molecule further displayed an activation at 1 µM in assay [2] of 15%.

In turn, `CCCCc1c(Cc2ccc(-c3ccccc3-c3noc(=O)[nH]3)cc2)c(=O)n(C2CCOC(C)(C)C2)c2ncnn12` (centres unmarked) [Example 134, 7-butyl-4-(2,2-dimethyltetrahydro-2H-pyran-4-yl)-6-{[2′-(5-oxo-4,5-dihydro-1,2,4-oxadiazol-3-yl)biphenyl-4-yl]methyl}[1,2,4]triazolo[1,5-a]pyrimidin-5(4H)-one] came in with an IC50 in assay [1] of 1.3 nM. For the same molecule, the activation at 1 µM in assay [2] came out at 26%.

`CCCCc1c(Cc2ccc(-c3ccccc3-c3noc(=O)[nH]3)cc2F)c(=O)n(C2CCOCC2)c2nc(C)nn12` [Example 135, 7-butyl-6-{[3-fluoro-2′-(5-oxo-4,5-dihydro-1,2,4-oxadiazol-3-yl)biphenyl-4-yl]methyl}-2-methyl-4-(tetrahydro-2H-pyran-4-yl)[1,2,4]triazolo[1,5-a]pyrimidin-5(4H)-one]: in assay [1], the IC50 turned out to be 0.9 nM. In assay [2], this molecule showed an activation at 1 µM of 26%.

In assay [1], `CCCc1c(Cc2ccc(-c3ccccc3-c3noc(=O)[nH]3)cc2F)c(=O)n(C2CCOC(C)(C)C2)c2nc(C)nn12` (centres unmarked) [Example 136, 4-(2,2-dimethyltetrahydro-2H-pyran-4-yl)-6-{[3-fluoro-2′-(5-oxo-4,5-dihydro-1,2,4-oxadiazol-3-yl)biphenyl-4-yl]methyl}-2-methyl-7-propyl[1,2,4]triazolo[1,5-a]pyrimidin-5(4H)-one] yielded an IC50 of 1.3 nM. In assay [2], the activation at 1 µM worked out at 17%.

The molecule `CCCCc1c(Cc2ccc(-c3ccccc3-c3noc(=O)[nH]3)cc2)c(=O)n(C2CCOC(C)(C)C2)c2nc(C)nn12` (centres unmarked) [Example 137, 7-butyl-4-(2,2-dimethyltetrahydro-2H-pyran-4-yl)-2-methyl-6-{[2′-(5-oxo-4,5-dihydro-1,2,4-oxadiazol-3-yl)biphenyl-4-yl]methyl}[1,2,4]triazolo[1,5-a]pyrimidin-5(4H)-one] had an IC50 in assay [1] of 1.4 nM. The molecule further yielded an activation at 1 µM in assay [2] of 20%.

`CCCCc1c(Cc2ccc(-c3ccccc3-c3noc(=O)[nH]3)cc2)c(=O)n([C@@H]2C[C@@H](C)O[C@@H](C)C2)c2ncnn12` [Example 138, 7-butyl-4-[(2R,4s,6S)-2,6-dimethyltetrahydro-2H-pyran-4-yl]-6-{[2′-(5-oxo-4,5-dihydro-1,2,4-oxadiazol-3-yl)biphenyl-4-yl]methyl}[1,2,4]triazolo[1,5-a]pyrimidin-5(4H)-one] gave an IC50 in assay [1] of 1.3 nM. The same molecule gave an activation at 1 µM in assay [2] of 8%.
